Measurements taken from paper PMC7126698 (Bioorganic & Medicinal Chemistry, 2008).

Test system: mature 3CL protease
Assay type: biochemical, SARS coronavirus

Substance: H-Thr-Ser-Ala-Val-Leu-Gln-Ser-Gly-Phe-Arg-Lys-NH2 [SO1]
- disappearance of SO1: completely disappeared within 1 h
